Source: ChEMBL document CHEMBL1130582, “Substrate specificity of thermostable farnesyl diphosphate synthase with alkyl group homologs of isopentenyl diphosphate” (1998)
One block for each compound: values may come before it.

How the values were obtained:
Sus scrofa [1] = organism: Sus scrofa; assay: Relative yield of the product (4d) derived from the compound with DMAPP in the enzymatic reaction catalyzed by FPP synthase from porcine liver; ND = Not detected; assay type: functional
Aves [2] = assay: Relative yield of the product (4d) derived from the compound with DMAPP in the enzymatic reaction catalyzed by FPP synthase from avian liver; ND = Not detected; assay type: functional
Sus scrofa [3] = organism: Sus scrofa; assay: Relative yield of the product (3b) derived from the compound with DMAPP in the enzymatic reaction catalyzed by FPP synthase from porcine liver; ND = Not detected; assay type: functional, organism-based
[4] = tested on: Geobacillus stearothermophilus; assay: Relative yield of the product (4d) derived from the compound with GPP in the enzymatic reaction catalyzed by FPP synthase from B. stearothermophilus; ND = Not detected; assay type: functional
[5] = tested on: Geobacillus stearothermophilus; assay: (§1) Relative yield of the product (3b) derived from the compound with DMAPP in the enzymatic reaction catalyzed by FPP synthase from Bacillus stearothermophilus; assay type: functional
Aves [6] = assay: Relative yield of the product (3b) derived from the compound with DMAPP in the enzymatic reaction catalyzed by FPP synthase from avian liver; ND = Not detected; assay type: functional
[7] = tested on: Geobacillus stearothermophilus; assay: Relative yield of the product (3c) derived from the compound with DMAPP in the enzymatic reaction catalyzed by FPP synthase from Bacillus stearothermophilus; assay type: functional
Aves [8] = assay: Relative yield of the product (3c) derived from the compound with DMAPP in the enzymatic reaction catalyzed by FPP synthase from avian liver; assay type: functional
Sus scrofa [9] = organism: Sus scrofa; assay: Relative yield of the product (3c) derived from the compound with DMAPP in the enzymatic reaction catalyzed by FPP synthase from porcine liver; assay type: functional
Aves [10] = assay: Relative yield of the product (4c) derived from the compound with GPP in the enzymatic reaction catalyzed by FPP synthase from avian liver; ND = Not detected; assay type: functional
Sus scrofa [11] = organism: Sus scrofa; assay: Relative yield of the product (4c) derived from the compound with GPP in the enzymatic reaction catalyzed by FPP synthase from porcine liver; assay type: functional
[12] = tested on: Geobacillus stearothermophilus; assay: Relative yield of the product (4c) derived from the compound with GPP in the enzymatic reaction catalyzed by FPP synthase from Bacillus stearothermophilus; assay type: functional
[13] = biological target: T1, Farnesyl diphosphate synthase (Geobacillus stearothermophilus) (UniProt Q08291); assay: Relative yield of the product (4b') derived from the compound with GPP in the enzymatic reaction catalyzed by FPP synthase from Bacillus stearothermophilus; assay type: functional
T1 sequence (whole entry): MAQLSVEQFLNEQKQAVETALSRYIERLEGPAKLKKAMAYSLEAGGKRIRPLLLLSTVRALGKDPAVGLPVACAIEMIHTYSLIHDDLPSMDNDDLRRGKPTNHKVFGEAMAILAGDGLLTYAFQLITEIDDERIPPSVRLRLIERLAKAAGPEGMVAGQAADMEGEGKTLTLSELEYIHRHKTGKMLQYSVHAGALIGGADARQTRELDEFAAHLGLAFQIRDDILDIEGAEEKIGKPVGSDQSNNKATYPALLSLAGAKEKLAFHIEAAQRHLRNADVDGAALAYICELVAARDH

[14] = tested on: Farnesyl diphosphate synthase (Aves); assay: Relative yield of the product (3b) derived from the compound with DMAPP in the enzymatic reaction catalyzed by FPP synthase from avian liver
[15] = tested on: Farnesyl diphosphate synthase (Sus scrofa); assay: Relative yield of the product (3b) derived from the compound with DMAPP in the enzymatic reaction catalyzed by FPP synthase from porcine liver; ND = Not detected
[16] = tested on: Farnesyl diphosphate synthase (Aves); assay: Relative yield of the product (4b') derived from the compound with GPP in the enzymatic reaction catalyzed by FPP synthase from avian liver
[17] = tested on: Farnesyl diphosphate synthase (Aves); assay: Relative yield of the product (4b) derived from the compound with DMAPP in the enzymatic reaction catalyzed by FPP synthase from avian liver
[18] = biological target: T1, Farnesyl diphosphate synthase (Geobacillus stearothermophilus); assay: Relative yield of the product (4b) derived from the compound with DMAPP in the enzymatic reaction catalyzed by FPP synthase from Bacillus stearothermophilus; assay type: functional
[19] = tested on: Farnesyl diphosphate synthase (Sus scrofa); assay: Relative yield of the product (4b') derived from the compound with GPP in the enzymatic reaction catalyzed by FPP synthase from porcine liver
[20] = tested on: Farnesyl diphosphate synthase (Sus scrofa); assay: Relative yield of the product (4b) derived from the compound with DMAPP in the enzymatic reaction catalyzed by FPP synthase from porcine liver
[21] = biological target: T1, Farnesyl diphosphate synthase (Geobacillus stearothermophilus); assay: as §1; assay type: functional

Compound: C=C(CCCC)CCOP(=O)(O)OP(=O)(O)O
Production (Sus scrofa [1]): Not detected | Production (Aves [2]): Not detected | Production (Sus scrofa [3]): Not detected | Production [4]: Not detected | Production [5]: 4% | Production (Aves [6]): Not detected

Compound: C=C(CCC)CCOP(=O)(O)OP(=O)(O)O
Production [7]: 29% | Production (Aves [8]): 1% | Production (Sus scrofa [9]): 1.4% | Production (Aves [10]): Not detected | Production (Sus scrofa [11]): 1.8% | Production [12]: 10%

Production [13]: 48% | Production [14]: 1% | Production [15]: Not detected | Production [16]: 25% | Production [17]: 6.7% | Production [18]: 40% | Production [19]: 27% | Production [20]: 10% | Production [21]: 68%
Compound: C=C(CC)CCOP(=O)(O)OP(=O)(O)O
